Source: patent US10030012B2, “Piperidin-1-yl and azepin-1-yl carboxylates as muscarinic M4 receptor agonists” (Heptares Therapeutics Limited, priority 2013, dated 2018)

Experiments:
human M4 receptor = human M4 receptor (Homo sapiens (Human), UniProt P08173); test: In vitro M4 functional assay (intracellular calcium, FLiPR Tetra); type: cell-based; settings: for Emax: relative efficacy to an EC100 concentration of acetylcholine, read-out: M4 % RE
Experimental: (§1) In Vitro M4 &M2 Functional Assay
(§2) The functional activity of compounds at the M4 and M2 receptors was determined by measuring changes in the level of intracellular calcium ions caused by signalling cascades mediated by the receptor. Intracellular Calcium levels were measured using a calcium sensitive fluorescent dye, calcium 5 (Molecular Devices) The changes in fluorescence were monitored by a fluorescent imager, FLiPR Tetra (Molecular devices). Increases in intracellular calcium were readily detected upon activation of both receptors by the muscarinic receptor agonist Acetylcholine.
(§3) CHOK1 cells stably expressing human M4 or M2 receptor and co-expressing the accessory g-protein Gα16 were routinely grown as monolayers in Hams-F12 medium (Invitrogen) supplemented with 10% foetal bovine serum (FBS) (Hyclone), 500 ug/mL Geneticin and 250 ug/mL zeocin (both invitrogen) in 5% CO2 at 37° C. Once confluent is cells cryopreserved by freezing at −186° C. in freezing solution (90% FBS 10% DMSO) (Sigma-Aldrich Co.). Twenty-four hours prior to testing cells resuscitated and freezing media removed via centrifugation, cells then seeded in a black walled clear bottom 384 well plates (Corning) at a density of 15,000 cells/well in Hams F12 media supplemented with 10% FBS. On the day of assay, growth media was removed and replaced with 63 μl of Calcium 5 dye solution (Molecular Devices) in assay buffer (HBSS, 20 mM HEPES, 0.1% BSA, 1 mM Probenecid pH7.4 (Sigma-Aldrich Co.)) per well (each vial of Calcium 5 resuspended in 27 mL of assay buffer). Cells were then incubated for 45 minutes at 37° C., 5% CO2. Compound was serially diluted in DMSO (log/half log) before being diluted 1:20 with assay buffer. 7 μl of compound diluted in assay buffer was then added to cells on FLiPR tetra and fluorescence intensity measured for 5 minutes. EC50 values for compounds were determined from ten point half log scale dose-response studies and represent the concentration of compound required to […] maximal response. Curves were generated using the average of duplicate wells for each data point and analyzed using non-linear regression of four parameter dose response. Percentage Relative efficacy (RE) to an EC100 concentration of acetylcholine was reported for all compounds. The results are set out in Table 3 below in which the term “No Response” means that there was no significant response of calcium flux in the assay indicative of agonism.

human M2 receptor = human M2 receptor (Homo sapiens (Human), UniProt P08172); test: In vitro M2 functional assay (intracellular calcium, FLiPR Tetra); type: cell-based; settings: for EC50 / M2 EC50: CHOK1 cells stably expressing human M2 receptor and Gα16, calcium flux, No Response = no significant response of calcium flux indicative of agonism; for activation at 10 µM: response at 10 μM compound, relative to an EC100 concentration of acetylcholine, read-out: M2 % RE @ 10 μM; for M2 % RE: relative efficacy to an EC100 concentration of acetylcholine
Experimental: as §1, §2, §3

[1] = CHOK1 cells stably expressing human M4 receptor and Gα16, calcium flux

human M2 receptor, sequence (P08172 whole entry): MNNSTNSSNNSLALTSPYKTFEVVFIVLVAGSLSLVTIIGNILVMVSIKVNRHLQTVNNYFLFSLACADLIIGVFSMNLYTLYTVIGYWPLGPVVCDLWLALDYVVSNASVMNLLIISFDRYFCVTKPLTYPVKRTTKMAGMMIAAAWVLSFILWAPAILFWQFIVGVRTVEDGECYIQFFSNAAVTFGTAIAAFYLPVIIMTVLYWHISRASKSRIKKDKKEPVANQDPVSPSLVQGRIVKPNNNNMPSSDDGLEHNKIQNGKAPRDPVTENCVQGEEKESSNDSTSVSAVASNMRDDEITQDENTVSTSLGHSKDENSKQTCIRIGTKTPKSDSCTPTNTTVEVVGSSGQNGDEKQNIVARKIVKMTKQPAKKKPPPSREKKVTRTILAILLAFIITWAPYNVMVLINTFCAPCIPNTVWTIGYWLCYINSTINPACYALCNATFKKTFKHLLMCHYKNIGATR
human M4 receptor, sequence (P08173 whole entry): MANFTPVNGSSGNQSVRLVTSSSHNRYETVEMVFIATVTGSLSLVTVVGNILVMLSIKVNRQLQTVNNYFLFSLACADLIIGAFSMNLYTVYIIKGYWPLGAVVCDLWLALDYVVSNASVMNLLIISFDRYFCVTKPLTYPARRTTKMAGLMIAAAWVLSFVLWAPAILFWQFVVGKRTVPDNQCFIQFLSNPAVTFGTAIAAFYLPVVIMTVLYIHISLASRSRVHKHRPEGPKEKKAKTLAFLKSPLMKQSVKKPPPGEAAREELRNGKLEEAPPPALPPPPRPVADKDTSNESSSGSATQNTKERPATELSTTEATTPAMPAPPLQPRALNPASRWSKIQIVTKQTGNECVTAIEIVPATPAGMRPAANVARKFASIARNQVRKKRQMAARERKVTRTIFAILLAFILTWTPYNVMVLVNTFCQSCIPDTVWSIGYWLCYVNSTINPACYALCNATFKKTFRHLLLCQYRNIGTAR

Structure (SMILES)	EC50 (human M4 receptor; [1]) [nM]	Emax (human M4 receptor) [%]	EC50 (human M2 receptor) [nM]	activation at 10 µM (human M2 receptor) [%]	M2 EC50 (human M2 receptor)	M2 % RE (human M2 receptor) [%]	M4 EC50 (human M4 receptor; [1])
CCOC(=O)N1CCC(N2CCC(c3nccn3C)CC2)CC1 [Example 1, Ethyl 4-[4-(1-methyl-1H-imidazol-2-yl)piperidin-1-yl]piperidine-1-carboxylate]	2360	49	> 10000	34			
CCOC(=O)N1CCCC(N2CCC(c3nccn3CC(=O)NC3CCCCC3)CC2)CC1 (centres unmarked) [Example 2, Ethyl 4-(4-{1-[(cyclohexylcarbamoyl)methyl]-1H-imidazol-2-yl}piperidin-1-yl)azepane-1-carboxylate]	1870	51			No Response		
CCOC(=O)N1CCCC(N2CCC(n3cccc3)CC2)CC1 (centres unmarked) [Example 3, Ethyl 4-[4-(1H-pyrrol-1-yl)piperidin-1yl]azepane-1-carboxylate]	330	59	1540			38	
CCOC(=O)N1CCCC(N2CCC(n3cccn3)CC2)CC1 (centres unmarked) [Example 4, Ethyl 4-[4-(1H-pyrazol-1-yl)piperidin-1yl]azepane-1-carboxylate]	140	74			No Response		
CCOC(=O)N1CCCC(N2CCC(n3nccc3-c3ccc(Cl)cc3)CC2)CC1 (centres unmarked) [Example 5, Ethyl 4-{4-[5-(4-chlorophenyl)-1H-pyrazol-1-yl]piperidin-1-yl}azepane-1-carboxylate]	250	49	> 10000	25			
CCOC(=O)N1CCCC(N2CCC(c3cc[nH]n3)CC2)CC1 (centres unmarked) [Example 6, Ethyl 4-[4-(1H-pyrazol-3-yl)piperidin-1yl]azepane-1-carboxylate]	190	53			No Response		
CCOC(=O)N1CCCC(N2CCC(n3nccc3-c3ccnn3C)CC2)CC1 (centres unmarked) [Example 7, Ethyl 4-{4-[5-(1-methyl-1H-pyrazol-5-yl)-1H-pyrazol-1-yl]piperidin-1-yl}azepane-1-carboxylate]	260	75	> 10000	26			
CCOC(=O)N1CCCC(N2CCC(n3cc(-c4ccc(Cl)cc4)cn3)CC2)CC1 (centres unmarked) [Example 8, Ethyl 4-{4-[4-(4-chlorophenyl)-1H-pyrazol-1-yl]piperidin-1-yl}azepane-1-carboxylate]	320	59			No Response		
CCOC(=O)N1CCCC(N2CCC(c3nccn3C)CC2)CC1 (centres unmarked) [Example 9, Ethyl 4-[4-(1-methyl-1H-imidazol-2-yl)piperidin-1-yl]azepane-1-carboxylate]	1050	62			No Response		
CCOC(=O)N1CCCC(N2CCC(c3nccn3CC)CC2)CC1 (centres unmarked) [Example 10, Ethyl 4-[4-(1-ethyl-1H-imidazol-2-yl)piperidin-1-yl]azepane-1-carboxylate]	1740	44			No Response		
CCCn1ccnc1C1CCN(C2CCCN(C(=O)OCC)CC2)CC1 (centres unmarked) [Example 11, Ethyl 4-[4-(1-propyl-1H-imidazol-2-yl)piperidin-1-yl]azepane-1-carboxylate]	960	41			No Response		
CCOC(=O)N1CCCC(N2CCC(n3nccc3C)CC2)CC1 (centres unmarked) [Example 12, Ethyl 4-[4-(5-methyl-1H-pyrazol-1-yl)piperidin-1-yl]azepane-1-carboxylate]	520	82	> 10000	28			
CCOC(=O)N1CCCC(N2CCC(OC)(c3nccn3C)CC2)CC1 (centres unmarked) [Example 13, Ethyl 4-[4-methoxy-4-(1-methyl-1H-imidazol-2-yl)piperidin-1-yl]azepane-1-carboxylate]	2880	24			No Response		
CCOC(=O)N1CCCC(N2CCC(c3ccnn3C)CC2)CC1 (centres unmarked) [Example 14, Ethyl 4-[4-(1-methyl-1H-pyrazol-5-yl)piperidin-1-yl]azepane-1-carboxylate]	750	55			No Response		
CCOC(=O)N1CCCC(N2CCC(c3nnc(C(C)C)o3)CC2)CC1 (centres unmarked) [Example 15, Ethyl 4-(4-(5-isopropyl-1,3,4-oxadiazol-2-yl)piperidin-1-yl)azepane-1-carboxylate]	1280	44			No Response		
CCOC(=O)N1CCCC(N2CCC(n3ccc(C)n3)CC2)CC1 (centres unmarked) [Example 16, Ethyl 4-[4-(3-methyl-1H-pyrazol-1-yl)piperidin-1-yl]azepane-1-carboxylate]	400	72	> 10000	24			
CCOC(=O)N1CCCC(N2CCC(c3cc(-c4cccs4)n[nH]3)CC2)CC1 (centres unmarked) [Example 17, Ethyl 4-{4-[3-(thiophen-2-yl)-1H-pyrazol-5-yl]piperidin-1-yl}azepane-1-carboxylate]	810	50			No Response		
CCOC(=O)N1CCCC(N2CCC(n3cc(-c4ccc(F)cc4)cn3)CC2)CC1 (centres unmarked) [Example 18, Ethyl 4-{4-[4-(4-fluorophenyl)-1H-pyrazol-1-yl]piperidin-1-yl}azepane-1-carboxylate]	410	45			No Response		
CCOC(=O)N1CCCC(N2CCC(c3nccn3CC(=O)NC3CC3)CC2)CC1 (centres unmarked) [Example 19, Ethyl 4-(4-{1-[(cyclopropylcarbamoyl)methyl]-1H-imidazol-2-yl}piperidin-1-yl)azepane-1-carboxylate]	1510	64			No Response		
CCOC(=O)N1CCCC(N2CCC(n3nccc3C3CC3)CC2)CC1 (centres unmarked) [Example 20, Ethyl 4-[4-(5-cyclopropyl-1H-pyrazol-1-yl)piperidin-1-yl]azepane-1-carboxylate]	190	77	2260			37	
CCOC(=O)N1CCCC(N2CCC(n3nccc3C(=O)N(C)C)CC2)CC1 (centres unmarked) [Example 21, Ethyl 4-{4-[5-(dimethylcarbamoyl)-1H-pyrazol-1-yl]piperidin-1-yl}azepane-1-carboxylate]	2680	45			No Response		
CCOC(=O)N1CCCC(N2CCC(n3nccc3-c3cnn(C(C)C)c3)CC2)CC1 (centres unmarked) [Example 22, Ethyl 4-(4-{5-[1-(propan-2-yl)-1H-pyrazol-4-yl]-1H-pyrazol-1-yl}piperidin-1-yl)azepane-1-carboxylate]	200	68	680			38	
CCOC(=O)N1CCCC(N2CCC(n3nccc3COC)CC2)CC1 (centres unmarked) [Example 23, Ethyl 4-{4-[5-(methoxymethyl)-1H-pyrazol-1-yl]piperidin-1-yl}azepane-1-carboxylate]	750	67			No Response		
CCOC(=O)N1CCCC(N2CCC(n3nccc3C(=O)NCC3CC3)CC2)CC1 (centres unmarked) [Example 24, Ethyl 4-(4-{5-[(cyclopropylmethyl)carbamoyl]-1H-pyrazol-1-yl}piperidin-1-yl)azepane-1-carboxylate]	1370	45			No Response		
CCOC(=O)N1CCCC(N2CCC(n3nccc3-c3sc(C)nc3C)CC2)CC1 (centres unmarked) [Example 25, Ethyl 4-{4-[5-(dimethyl-1,3-thiazol-5-yl)-1H-pyrazol-1-yl]piperidin-1-yl}azepane-1-carboxylate]	270	46			No Response		
CCOC(=O)N1CCCC(N2CCC(c3nccs3)CC2)CC1 (centres unmarked) [Example 26, Ethyl 4-[4-(1,3-thiazol-2-yl)piperidin-1-yl]azepane-1-carboxylate]	130	51			No Response		
CCOC(=O)N1CCC[C@@H](N2CCC(n3cccn3)CC2)CC1 [Example 82, Ethyl (4R)-4-[4-(1H-pyrazol-1-yl)piperidin-1-yl]azepane-1-carboxylate]	460	80					
CCOC(=O)N1CCC[C@@H](N2CCC(c3nccn3C)CC2)CC1 [Example 84, Ethyl (4R)-4-[4-(1-methyl-1H-imidazol-2-yl)piperidin-1-yl]azepane-1-carboxylate]							No response
